Patent US3962282A, “Juvenile hormone mimics” (priority 1974, dated 1976)

Assays:
Assay type in all cases: in vivo
Mexican bean beetle = assay: topical application to Mexican bean beetle, fourth larval stage, maturation inhibition
Excerpt: (§1) The compounds were applied in acetone solution at concentrations of 10 percent, 1 percent and 0.5 percent. One microliter of the acetone solution was applied to each test specimen. Ten test specimens were employed for each insect at each concentration and compared to ten acetone controls and ten zero controls. Approximately eight to ten days were required before results could be ascertained.
(§2) The insect species used in the test were Tenebrio molitor pupae; milkweed bug, fourth nymphal stage; wax moth, fifth larval stage; and Mexican bean beetle, fourth larval stage. At the completion of the test, each specimen was examined for the degree of juvenile and adult characteristics. The milkweed bug, wax moth, and Mexican bean beetle were assigned a numerical rating of 0 to 3 with 0 indicating no effect and 3 indicating the maximum effect or least adult development. Because of differences in morphology the Tenebrio rating scale was 0 to 4. In all cases a rating of 2 or higher means that the insect is incapable of reproduction. The number of specimens in each rating classification are given. In any test were the total of specimens reported is less than 10, those unreported died in some metamorphic stage. Such deaths indicate control, since the dead insects are not capable of reproducing.

wax moth = assay: topical application to wax moth, fifth larval stage, maturation inhibition
Excerpt: as §1, §2

Tenebrio molitor pupae = assay: topical application to Tenebrio molitor pupae, maturation inhibition
Excerpt: as §1, §2

milkweed bug = assay: topical application to milkweed bug, fourth nymphal stage, maturation inhibition; details: rating scale 0-3
Excerpt: as §1, §2

[1] = 10% in acetone, 1 microliter topical, rating scale 0 (no effect) to 3 (maximum)
[2] = 10% in acetone, 1 microliter topical, rating scale 0 (no effect) to 4 (maximum)

Structure (SMILES)	number of specimens in rating 0 (Mexican bean beetle; 0.5%, rating scale 0-3) [specimens]	number of specimens in rating 0 (Mexican bean beetle; 1%, rating scale 0-3) [specimens]	number of specimens in rating 0 (Mexican bean beetle; [1]) [specimens]	number of specimens in rating 0 (wax moth; 0.5%, rating scale 0-3) [specimens]	number of specimens in rating 0 (wax moth; 1%, rating scale 0-3) [specimens]	number of specimens in rating 0 (wax moth; [1]) [specimens]	number of specimens in rating 0 (Tenebrio molitor pupae; 0.5%, rating scale 0-4) [specimens]	number of specimens in rating 0 (Tenebrio molitor pupae; 1%, rating scale 0-4) [specimens]	number of specimens in rating 0 (Tenebrio molitor pupae; [2]) [specimens]	number of specimens in rating 4 (Tenebrio molitor pupae; 10%, rating scale 0-4) [specimens]	number of specimens in rating 0 (milkweed bug; 0.5%) [specimens]	number of specimens in rating 1 (milkweed bug; 0.5%) [specimens]	number of specimens in rating 2 (milkweed bug; 0.5%) [specimens]	number of specimens in rating 2 (milkweed bug; 1%) [specimens]	number of specimens in rating 3 (milkweed bug; 1%) [specimens]	number of specimens in rating 3 (milkweed bug; 10%) [specimens]	number of specimens in rating 3 (Mexican bean beetle; 0.5%, rating scale 0-3) [specimens]	number of specimens in rating 3 (Mexican bean beetle; 1%, rating scale 0-3) [specimens]	number of specimens in rating 3 (Mexican bean beetle; 10%, rating scale 0-3) [specimens]	number of specimens in rating 0 (milkweed bug; 1%) [specimens]	other results
CC(C)=CCC/C(C)=C/CCc1ccc(C#N)cc1 [trans-4-(4,8-DIMETHYL-3,7-NONADIENYL)BENZONITRILE]	10	10	10	10	10	10	10	10	9	1	3	5	1	3	7	10	–	–	–	–	number of specimens in rating 3 (milkweed bug; 0.5%): 1 specimens
CC(C)=CCC/C(C)=C/CCc1ccccc1 [2,6-DIMETHYL-9-PHENYL-2,6-NONADIENE]	–	–	–	10	10	10	7	6	–	5	8	1	1	–	–	9	10	10	10	2	number of specimens in rating 1 (Tenebrio molitor pupae; 0.5%, rating scale 0-4): 3 specimens; number of specimens in rating 1 (Tenebrio molitor pupae; 1%, rating scale 0-4): 4 specimens; number of specimens in rating 2 (Tenebrio molitor pupae; 10%, rating scale 0-4): 1 specimens; number of specimens in rating 3 (Tenebrio molitor pupae; 10%, rating scale 0-4): 4 specimens; number of specimens in rating 1 (milkweed bug; 1%): 1 specimens
CC(=CCCc1ccc2c(c1)OCO2)CCCC(C)C [2,6-DIMETHYL-9-(3,4-METHYLENEDIOXYPHENYL)-6-NONENE]	–	–	–	9	9	10	3	–	1	9	5	1	–	–	8	7	2	10	10	1	number of specimens in rating 1 (Mexican bean beetle; 0.5%, rating scale 0-3): 1 specimens; number of specimens in rating 2 (Mexican bean beetle; 0.5%, rating scale 0-3): 7 specimens; number of specimens in rating 1 (wax moth; 0.5%, rating scale 0-3): 1 specimens; number of specimens in rating 1 (wax moth; 1%, rating scale 0-3): 1 specimens; number of specimens in rating 1 (Tenebrio molitor pupae; 0.5%, rating scale 0-4): 1 specimens; number of specimens in rating 2 (Tenebrio molitor pupae; 0.5%, rating scale 0-4): 2 specimens; number of specimens in rating 3 (Tenebrio molitor pupae; 0.5%, rating scale 0-4): 2 specimens; number of specimens in rating 4 (Tenebrio molitor pupae; 0.5%, rating scale 0-4): 2 specimens; number of specimens in rating 2 (Tenebrio molitor pupae; 1%, rating scale 0-4): 4 specimens; number of specimens in rating 4 (Tenebrio molitor pupae; 1%, rating scale 0-4): 6 specimens; number of specimens in rating 3 (milkweed bug; 0.5%): 3 specimens
CCOc1cccc(CCC=C(C)CCC=C(C)C)c1 [9-(3-ethoxyphenyl)-2,6-dimethyl-2,6nonadiene]	10	8	1	10	10	10	10	8	–	4	3	1	2	7	2	7	–	–	7	–	number of specimens in rating 1 (Mexican bean beetle; 1%, rating scale 0-3): 2 specimens; number of specimens in rating 2 (Mexican bean beetle; 10%, rating scale 0-3): 2 specimens; number of specimens in rating 1 (Tenebrio molitor pupae; 1%, rating scale 0-4): 2 specimens; number of specimens in rating 1 (Tenebrio molitor pupae; 10%, rating scale 0-4): 1 specimens; number of specimens in rating 3 (Tenebrio molitor pupae; 10%, rating scale 0-4): 5 specimens
CCC(C)=CCCC(=CCCc1ccc2c(c1)OCO2)CC [3-METHYL-7-ETHYL-10-(3,4-METHYLENEDIOXYPHENYL)-3,7-DECADIENE]	–	–	–	9	10	10	–	–	–	10	9	1	–	2	1	10	9	10	10	7	number of specimens in rating 2 (Mexican bean beetle; 0.5%, rating scale 0-3): 1 specimens; number of specimens in rating 3 (Tenebrio molitor pupae; 0.5%, rating scale 0-4): 2 specimens; number of specimens in rating 4 (Tenebrio molitor pupae; 0.5%, rating scale 0-4): 8 specimens; number of specimens in rating 3 (Tenebrio molitor pupae; 1%, rating scale 0-4): 1 specimens; number of specimens in rating 4 (Tenebrio molitor pupae; 1%, rating scale 0-4): 9 specimens
CC(C)=CCCC(C)=CCCc1cc2c(cc1Cl)OCO2 [9-(2-CHLORO-4,5-METHYLENEDIOXYPHENYL)-2,6-DIMETHYL-2,6-NONADIENE]	10	9	7	10	10	8	10	10	10	–	9	1	–	–	6	10	–	10	10	3	number of specimens in rating 2 (Mexican bean beetle; 1%, rating scale 0-3): 1 specimens; number of specimens in rating 1 (Mexican bean beetle; 10%, rating scale 0-3): 3 specimens; number of specimens in rating 2 (wax moth; 10%, rating scale 0-3): 1 specimens; number of specimens in rating 1 (milkweed bug; 1%): 1 specimens
CC(C)=CCC/C(C)=C/CCc1ccc(N(C)C)cc1 [trans-4-(4,8-DIMETHYL-3,7-NONADIENYL)-N,N-DIMETYLANILINE]	10	9	–	10	10	10	10	2	–	10	10	–	–	1	2	10	–	1	10	5	number of specimens in rating 1 (Tenebrio molitor pupae; 1%, rating scale 0-4): 2 specimens; number of specimens in rating 2 (Tenebrio molitor pupae; 1%, rating scale 0-4): 1 specimens; number of specimens in rating 3 (Tenebrio molitor pupae; 1%, rating scale 0-4): 4 specimens; number of specimens in rating 1 (milkweed bug; 1%): 1 specimens
CC(C)=CCC/C(C)=C/CCc1cccc(Cl)c1 [trans-2,6-dimethyl-9-(3-chlorophenyl)-2,6-nonadiene]	10	9	–	10	7	7	10	10	2	–	–	–	–	–	10	10	–	1	10	–	number of specimens in rating 1 (wax moth; 1%, rating scale 0-3): 1 specimens; number of specimens in rating 2 (wax moth; 1%, rating scale 0-3): 2 specimens; number of specimens in rating 1 (wax moth; 10%, rating scale 0-3): 3 specimens; number of specimens in rating 1 (Tenebrio molitor pupae; 10%, rating scale 0-4): 1 specimens; number of specimens in rating 2 (Tenebrio molitor pupae; 10%, rating scale 0-4): 1 specimens; number of specimens in rating 3 (Tenebrio molitor pupae; 10%, rating scale 0-4): 6 specimens; number of specimens in rating 3 (milkweed bug; 0.5%): 10 specimens
CCC1(C)OC1CCC(C)=CCCc1ccc2c(c1)OCO2 (stereo not drawn) [3,4-EPOXY-3,7-DIMETHYL-10-(3,4-METHYLENEDIOXYPHENYL)-7-DECENE]	–	–	–	–	–	–	–	–	–	10	2	5	2	–	8	–	10	10	–	2	number of specimens in rating 2 (wax moth; 0.5%, rating scale 0-3): 1 specimens; number of specimens in rating 3 (wax moth; 0.5%, rating scale 0-3): 9 specimens; number of specimens in rating 3 (wax moth; 1%, rating scale 0-3): 10 specimens; number of specimens in rating 4 (Tenebrio molitor pupae; 0.5%, rating scale 0-4): 10 specimens; number of specimens in rating 4 (Tenebrio molitor pupae; 1%, rating scale 0-4): 10 specimens
